Here are results for eight molecules from US6734165B2, “Method for re-sensitizing vancomycin resistant bacteria which selectively cleave a cell wall depsipeptide” (The Trustees of Columbia University in the City of New York, priority 2001, dated 2004).

Where two headings read alike, the source gives them in different places.

For assay [1] the following is noted: incorporation of D—Ala—D—Lac by VRE; cited from earlier work.
The test system of assay [2] is enterococcus. To be noted: cited from earlier work.
A short description of assay [3]: Hydrolysis of D—Ala—D—Lac depsipeptide derivative 5 in aqueous phosphate buffer, followed by HPLC. To be noted: substrate 5 0.5 mM, phosphate buffer pH 7.0, 37° C.; for effect on the rate of hydrolysis over buffer: peptides 12 mM. It counts as biochemical. Here is the method:
The ability of peptide 4a in cleaving the substrate 5 was assessed in aqueous phosphate buffer pH=7 at 37° C. Stock solutions of 16 mM of 5 and 130 mM of peptide were made in water. Phosphate buffer solution of 25 mM was made by adjusting the pH of a K2HPO4 solution to 7.0 by addition of concentrated HCl. To a 1.5 mL glass vial (Waters) were added 5 μL stock solution of 5 and 15 μL stock solution of peptide, followed by 135 μL buffer. The volume was adjusted to 160 μL by addition of water. Vials were kept in an incubator at 37° C. and 2 μL aliquots were taken every 3 h. Each aliquot was diluted with water to 5 μL and 2 μL were injected in HPLC. Separation of components was carried out on a reverse phase column C18 (Waters) using a gradient water/acetonitrile (0.1% TFA).
Using HPLC and monitoring the p-NO2-phenyl derivative by UV at 275 nm, we could easily follow the disappearance of D—Ala—D—Lac derivative 5 and the formation of the hydrolyzed product 4. Under these conditions, we observed a 20% cleavage of the depsipeptide in 24 hrs. […] This proves that the whole structural assembly is necessary for the reaction to occur and that the reaction is not an artifact resulted by a change in the pH of the media due to the presence of the amine functionality.
N-acylated prolinol derivatives (FIG. 5) are the simplest structures that could fulfill such requirements. Their primary alcohol functionality forms an internal H-bond with the amide, the structures allow for the addition of the […] (NH2) through various linkers and moreover, are chiral molecules. The derivatives were tested for their ability to cleave 5 in aqueous phosphate buffer pH=7.0 at 37° C. (FIG. 6). […] One explanation for the higher activity of the very simple molecule SProC5 compared to 4a is the enhanced nucleophilicity of its hydroxyl (H position in H^1 NMR 7.59 ppm vs 6.62 ppm). Activity declines in the series with the decrease of the chain length from 5 carbons to 1 carbon. […] To confirm these speculations we compared the chemical shifts of the OH and NH in the H^1 NMR spectra of the NHBoc protected SProCn series (Table 1).
Substrate 5 was used at 0.5 mM, while prolinol derivatives were run at 12 mM. The graph is the average of three separate assays (FIG. 6).
The ability of peptide 4a in cleaving the substrate 5 was assessed in aqueous phosphate buffer pH 7 at 37° C. Using HPLC and monitoring the p-NO2-phenyl derivative by UV at 275 nm, we could easily follow the disappearance of D—Ala—D—Lac derivative 5 and the formation of the hydrolyzed product 4. […] A 20% hydrolysis of D—Ala—D—Lac in the presence of 4a was observed after 24 h.
The prolinol derivatives were additionally, tested for their ability to cleave 5 in aqueous phosphate buffer pH 7.0 at 37° C. […]

Assay [4] can be described thus: Combinatorial library screening on beads against red dye-labeled substrate 1. To be noted: substrate 1 in 12DCE or DMF, 3-5 days. Here is the method: Substrate 1 is treated with combinatorial libraries of potential nucleophiles on solid phase synthesis beads (2), and then those library members are selected that covalently linked the dye to a bead (3). This could be possible assuming that noncovalently bound material would be washed away with a polar solvent (Scheme 2). [drawing 4]
The assay for screening these libraries against 1 involves shaking a desired amount of library beads with the solution of labeled substrate for a period of time. To the library beads were added 200 μL solution of substrate 1 in 12DCE (or DMF), and the mixture was rotated for 3-5 days in a small glass vial. DMF was added and shaking continued for 1 h. Solvent was removed and the washing was repeated several times. One wash was performed with one drop of benzylamine added to DMF to remove any remaining physically bound substrate. The strongly red beads were picked individually in 1.5 μL DMF (in 25 μL capillaries) and photolysed for 6 h under a short wave UV lamp. Decoding was achieved by injecting the content of each capillary in EC-GC and comparing the chromatogram to a standard (20,21).
After the reaction occurred, the label-carrying beads were selected and analyzed (20,21). The initial assays were performed in 1,2-dichloroethane (12DCE) at a concentration of 2.3 mM in substrate 1.
The assay for screening these libraries against 1 involved shaking a desired amount of library beads with the solution of labeled substrate for a period of time. After the reaction occured, the label-carrying beads were selected and analyzed. The initial assays were performed in 1,2-dichloroethane (12DCE) at a concentration of 2.3 mM in substrate 1. After 3 days of shaking, the beads were extensively washed with dimethylformamide (DMF) and once with a diluted solution of benzylamine in DMF to remove any physically bound substrate (FIGS. 9A and 9B).

With `CN[C@H](CC(C)C)C(=O)N[C@H]1C(=O)N[C@@H](CC(N)=O)C(=O)N[C@H]2C(=O)N[C@H]3C(=O)N[C@H](C(=O)N[C@H](C(=O)O)c4cc(O)cc(O)c4-c4cc3ccc4O)[C@H](O)c3ccc(c(Cl)c3)Oc3cc2cc(c3O[C@@H]2O[C@H](CO)[C@@H](O)[C@H](O)[C@H]2O[C@H]2C[C@](C)(N)[C@H](O)[C@H](C)O2)Oc2ccc(cc2Cl)[C@H]1O` [vancomycin], the “decrease of affinity of vancomycin for the peptidoglycan layer” value in assay [1] is “over 1000 fold”. Besides, the MIC of vancomycin in assay [2] (10% of the peptidoglycan altered to D—Ala—D—Lac) is 32 µg/mL; in assay [2] (unaltered peptidoglycan), 2 µg/mL.

Turning to “BnNHD—Pro—L—Ser(OH)NHCONMe2 [compound 6]”, in assay [3], the “effect on the rate of hydrolysis over buffer” value (from here on “effect … over buffer”) is “No significant effect”.

With BnNHL—LysNHAc [compound 8], in assay [3], the “effect … over buffer” value was “No significant effect”.

“BnNHL—Lys—D—Pro—L—Ser(tBut)CONMe2 [compound 7]”: the “effect … over buffer” value in assay [3] is listed as “No significant effect”.

Turning to BnNHL—Lys—D—Pro—L—SerCONMe2 [4a], in assay [3] (compound 12 mM, 24 h), the “cleavage of the depsipeptide in 24 hrs” value is given as 20%.

For the molecule D—Asn—L—Lys—L—Pro—L—SerNH2, the “activity in bead screening (red beads / active sequence)” value in assay [4] is given as “active sequence”.

In the case of D—Lys—L—Pro—D—Ser dimethylurea, the “activity in bead screening (red beads / active sequence)” value in assay [4] is “never found as an active sequence”.

Regarding L—Lys—D—Pro—L—Ser dimethylurea, the “activity in bead screening (red beads / active sequence)” value in assay [4] was “an active sequence found more frequently in the assays”.
